Patent US20190070124A1, “COMPOSITIONS OF CB2 RECEPTOR SELECTIVE AGONISTS FOR TREATMENT OF MENTAL DISORDERS” (priority 2016, published 2019)
Entries after “also recorded” stand apart in the source; their conditions may differ.

Legend:
[1] = test system: murine model of schizophrenia; assay: Social interaction test in a novel environment, PCP mouse model; assay type: in vivo, mice; conditions: PND 88-89; postnatal PCP 5 mg/kg; oral BCP 10 mg/kg twice a week, PND 43-62
Procedure: (§1) BCP was diluted in canola oil. BCP (10 mg/kg diluted in canola oil) was administered to adolescent mice (PND 43-62) by gavage twice a week (on Sunday and Wednesday) for 3 weeks, a total of 6 gavages. Control group and PCP-induced group received by gavage the oil vehicle.
Each mouse was placed in a novel cage together with a nonaggressive intruder mouse of the same species, same sex and a similar age. The interaction between the two mice was recorded for 10 minutes with EthoVision software (Noldus). Social interaction was defined by contact between the mice (tracking nose point). Reduced duration of contact behavior indicates on impairment in social interaction.

[2] = test system: murine model of schizophrenia; assay: Forced-swimming test in the PCP mouse model; assay type: in vivo, mice; conditions: PND 83; postnatal PCP 5 mg/kg; oral BCP 10 mg/kg twice a week, PND 43-62
Procedure: as §1
Training was conducted for 6 min a day before the test. Each mouse was placed into a transparent glass cylinder filled with fresh water at 25° C. On the test day, the total duration/frequency of immobility and climbing was counted every 2 minutes for 6 minutes. An increased immobility is an index of learning and habituation, therefore a positive behavioral adaptation with a stressful condition.

[3] = Body weight in the neonatal PCP mouse model of schizophrenia
[4] = test system: murine model of schizophrenia; assay: Open-field test (ambulation, rearing, grooming) in the PCP mouse model
Procedure: Mice were assessed for hyperactivity behavior on postnatal day 16 (FIG. 2). Mice were placed in the center of a transparent glass cube cage 30×40 X31 cm divided into squares of 7.5×7.5 cm. The number of squares and rearing activity were counted for 8 min.
Mice were assessed for hyperactivity behavior on postnatal day 64-66. Mice were placed in the center of a transparent glass cube cage 30×40 X31 cm divided into squares of 7.5×7.5 cm. The number of squares and rearing activity were counted for 8 min.

[5] = air exposed, after 5 weeks; cited from earlier work
CYP2D6 = CYP2D6 (Homo sapiens, UniProt P10635); assay: CYP450 enzymatic metabolism in human liver microsomes
Procedure: CYP450 dependent activities were determined using a known substrate. […] A known inhibitor, such as quinidine, tested at a single concentration 3.00 μM was included as positive control. Incubation mixture containing human liver microsomes (0.1 mg/mL), substrate (5 μM) and standard inhibitor or test compound were warmed at 37 C for 10 minutes. Reactions were initiated by addition of the NADPH (1 mM) and the mixture was incubated for 20 minutes at 37° C. water bath. The organic solvent in the reaction mixture was DMSO. After incubation, ice cold acetonitrile was added to terminate the reaction. Generation of metabolite from the substrate reactions was determined by LC-MS/MS and assessed based on peak area ratios of analyte/IS. Mean was used to calculate the extent of inhibition (expressed as % of control activity).

[6] = test system: murine model of schizophrenia; assay: Elevated Plus Maze test in the PCP mouse model; assay type: in vivo, mice
Procedure: Anxiety as measured by the paucity of time spent on the two, anxiety-provoking, open arms (as opposed to the two enclosed arms) of an “Elevated Plus Maze” was used as a parameter of negative symptoms of schizophrenia (Josselyn and Vaccarino, 1998). The plus maze was elevated 50 cm above the table top. Behavior of each mouse was recorded for 5 min by a video camera and scored using the “EthoVision” software (Noldus Information Technology, Wageningen, The Netherlands), measuring the number of entries as well as the amount of time spent in each arm, open or closed. Increased time spent in the closed arms indicated increased anxiety. Increased time spent in the opened arms indicated anxiolytic behavior (reduced stress).

[7] = test system: murine model of schizophrenia; assay: PhenoTyper cage behaviour in the PCP mouse model; assay type: in vivo, mice; conditions: BCP 5 mg/kg PND 43-61
[8] = PND 17, BCP 10 mg/kg 1 h after PCP, ethanol-based vehicle
[9] = PND 35-37, postnatal BCP 10 mg/kg 1 h after PCP
[10] = PND 104, postnatal PCP, BCP 5 mg/kg PND 43-61
[11] = age 13 weeks, postnatal BCP 10 mg/kg 1 h after PCP
[12] = PND 91, females and males, postnatal PCP

CYP2D6, sequence (P10635 whole entry): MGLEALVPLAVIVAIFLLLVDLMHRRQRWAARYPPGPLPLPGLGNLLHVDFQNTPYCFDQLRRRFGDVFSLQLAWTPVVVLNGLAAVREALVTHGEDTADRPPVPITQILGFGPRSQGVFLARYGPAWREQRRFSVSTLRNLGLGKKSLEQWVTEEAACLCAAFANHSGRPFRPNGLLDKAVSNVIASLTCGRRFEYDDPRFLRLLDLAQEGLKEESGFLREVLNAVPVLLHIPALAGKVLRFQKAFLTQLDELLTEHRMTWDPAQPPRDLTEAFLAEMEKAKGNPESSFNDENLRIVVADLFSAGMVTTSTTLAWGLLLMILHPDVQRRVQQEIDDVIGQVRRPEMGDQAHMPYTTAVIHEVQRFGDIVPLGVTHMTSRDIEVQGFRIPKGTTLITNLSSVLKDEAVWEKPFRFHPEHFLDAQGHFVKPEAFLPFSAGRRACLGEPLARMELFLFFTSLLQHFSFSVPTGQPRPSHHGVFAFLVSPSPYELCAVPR

trans-(1R,9S)-8-methylene-4,11,11trimethylbicyclo[7.2.0]undec-4-ene [BCP]
social interaction, male mice [1]: reversed the effect of 5 mg/kg PCP on social interaction of male mice in the social interaction test
duration of immobility in the forced swim test, male mice [2]: reversed the effect of 5 mg/kg PCP on the duration of immobility of male mice in the forced swim test; also recorded: reversed the effect of PCP on mice in the open field test (29A) and in the forced swim test
body weight at PND 17 ([3]; BCP 10 mg/kg 1 h after PCP, ethanol-based vehicle, PCP+BCP vs PCP): no significant difference between groups treated with PCP with or without BCP
body weight ([3]; BCP 10 mg/kg 1 h after PCP, postnatal, DMSO-based vehicle): completely reversed the effect of PCP on body weight
body weight ([3]; BCP 10 mg/kg injected 1 h after each PCP 5 mg/kg dose, PND 3-16, Cremophor EL:ethanol:saline vehicle, weight PND 3-17): significantly reversed the inhibitory effect of PCP on body weight; also recorded: reversed the reduction in body weight during the first week of life; also recorded: did not restore the weight completely
effect on PCP-induced reduction of body weight, males [3, 8]: appeared to be more prominent
body weight, females [3, 9]: significantly reversed the effect of PCP on female body weight
body weight, males [3, 9]: no significant difference in male body weight between the groups
body weight [3, 10]: did not increase body weight in females and males, rather reduced body weight of PCP+BCP treated group
body weight of adolescent mice ([3]; postnatal PCP, BCP 5 mg/kg injected twice a week PND 43-61 (DMSO:Cremophor EL:saline)): did not affect body weight of adolescent mice
body weight, male mice ([3]; postnatal day 83, oral BCP 10 mg/kg twice a week, PND 43-62): did not affect body weight of male mice at postnatal day 83; also recorded: did not affect their body weight
open-field rearing and exploration ([4]; PND 17, male mice, BCP 10 mg/kg 1 h after each PCP 5 mg/kg injection (Cremophor EL:DMSO:saline)): reversed the effects of PCP on rearing and exploration
open-field ambulation and rearing ([4]; PND 17, males, BCP 10 mg/kg 1 h after PCP, DMSO-based carrier): completely reversed the effects of PCP on ambulation
open-field ambulation and rearing, females [4, 8]: reversed a proportion of the effects of PCP on ambulation and rearing behavior of female mice
open-field locomotor activity, males [4, 8]: appeared to be less sensitive to the treatment of PCP or PCP+BCP
open-field rearing and exploration [4, 8]: reversed the effects of PCP on rearing and exploration
open-field locomotor activity (ambulation), males [4, 9]: reduced locomotor activity; also recorded: significantly reversed the effect of PCP in males
open-field rearing and exploration, females [4, 9]: no differences in rearing and exploration behaviors were seen between the different groups
open-field rearing, males [4, 9]: significantly reduced rearing behavior as compared to vehicle and PCP-treated groups
open-field rearing ([4]; PND 63, females and males, postnatal PCP, BCP 5 mg/kg injected twice a week PND 43-61): reversed the effect of PCP on rearing in both females and males
open-field ambulation ([4]; PND 63, male and female, postnatal PCP, BCP 5 mg/kg injected twice a week PND 43-61): significantly reversed the effect of postnatal treatment of PCP on ambulation in male and female mice at PND 63
open-field exploration compared with saline-treated mice ([4]; PND 63, BCP 5 mg/kg injected twice a week PND 43-61): significantly inhibited the exploration of mice compared with saline-treated mice
open-field exploratory behavior, females ([4]; PND 104 (last BCP treatment PND 61), postnatal PCP, BCP 5 mg/kg PND 43-61): relapse in exploratory behavior was evident
self-grooming (total, without stimuli) ([4]; PND 104, females or males, postnatal PCP, BCP 5 mg/kg PND 43-61): did not reverse the effect of PCP on self-grooming; also recorded: did not reverse the effect of PCT on grooming at PND104
open-field rearing (and exploration), males [4, 10]: still significantly higher than that of PCP-treated mice with no BCP treatment; also recorded: improved exploration and rearing behaviors of male PCP treated mice at PND 104
activity in the open field test, female mice ([4]; postnatal PCP 5 mg/kg, BCP 10 mg/kg in canola oil by gavage twice a week, PND 43-62): reversed the effect of 5 mg/kg PCP on activity of female mice in the open field test
original compound consumed by autoxidation [5]: ~50%
risperidone-induced inhibition of CYP2D6 in the presence of BCP (CYP2D6; BCP combined with risperidone at a fixed concentration equivalent to IC50, human liver microsomes): significantly reduced the risperidone-induced inhibition of CYP2D6; also recorded: blocked the effect of risperidone and restored the activity of CYP2D6 enzyme
inhibitory effect on CYP2D6 (CYP2D6; human liver microsomes): 0-20 % inhibition
inhibition of CYP2D6 enzymatic activity (CYP2D6; human liver microsomes 0.1 mg/mL, 20 min, 37 C): slightly inhibited CYP2D6
plus maze open/close or open/(close+open) duration and frequency ([6]; PND 64, postnatal PCP, BCP 5 mg/kg PND 43-61): no effect at age 64; also recorded: did not reverse the effects of PCP in plus maze test
behavior in the open arm of the Elevated Plus Maze ([6]; PND 110, postnatal PCP, BCP 5 mg/kg PND 43-61): significantly reversed the effects of PCP on behavior in the open arm of the Elevated Plus Maze
time spent in closed arm or open arm ([6]; age 13 weeks, females and males, postnatal BCP 10 mg/kg 1 h after PCP): no significant change in the time spent in the closed arm or open arm
time spent in distal end of the opened arm, females [6, 11]: reversed this effect
time spent in distal end of the opened arm, males [6, 11]: reversed this effect
behavior in the close arm of the Elevated Plus Maze ([6]; age 64 days, postnatal PCP, BCP 5 mg/kg PND 43-61): significantly reversed the effects of PCP on behavior in the close arm of the Elevated Plus Maze
frequency of entries to the wheel [7, 12]: reversed the effects of PCP on the frequency of entries to the wheel in the Phenotyper cage both in females and males
time spent in the Hidden Zone [7, 12]: reversed the effects of PCP on the time spend in the Hidden Zone of PhenoTyper cage in females and males; also recorded: reversed the effects of PCP on the time spent in the hidden zone
time spent at the drinking zone ([7]; PND 91, compared with PCP-treated group): appeared to reduce the time spend at the drinking zone
frequency of entries to the Hidden Zone, males ([7]; PND 91, postnatal PCP): reversed the effect of PCP in males
time spent in the food zone ([7]; PND 91, postnatal PCP): did not affect the time spend in the food zone
frequency of entries to the Wheel Zone ([7]; PND 105, postnatal PCP): appeared to reduce the effect of PCP on the frequency of entries to the Wheel Zone
frequency of entries to the hidden zone ([7]; PND 105, postnatal PCP): reversed the effects of PCP on the frequency of entries to the hidden zone; also recorded: reversed the effect of PCP on frequency of entries to hidden zone
time spent at the hidden zone ([7]; PND 105, postnatal PCP): reversed the effects of PCP on the time spend at the hidden zone; also recorded: reversed the effect of PCP on time spent at the hidden zone
time spent in the wheel zone ([7]; PND 105, postnatal PCP): showed a trend to reverse the effect of PCP on the time spend in the wheel; also recorded: not the time spent in the wheel zone
